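Method: 48-hour compound exposure of cells in 96-well plates, five concentrations, linear interpolation of endpoints. TGI is the concentration that stops growth completely.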
Key:
Test in all cases: NCI tumour cell line growth inhibition, 48 h
[1] = test system: SK-MEL-2 melanoma
[2] = test system: MDA-N
[3] = test system: UACC-62 melanoma
[4] = test system: M14 melanoma
[5] = test system: NCI-H522 lung
[6] = test system: NCI-H23 lung
[7] = test system: UACC-257 melanoma
[8] = test system: A498 renal
[9] = test system: KM12 colon
[10] = test system: TK-10 renal
[11] = test system: HCT-116 colon

| SMILES | TGI [1] [µM] | TGI [2] [µM] | TGI [3] [µM] | TGI [4] [µM] | TGI [5] [µM] | TGI [6] [µM] | TGI [7] [µM] | TGI [8] [µM] | TGI [9] [µM] | TGI [10] [µM] | TGI [11] [µM] |
| --- | --- | --- | --- | --- | --- | --- | --- | --- | --- | --- | --- |
| COc1ccc(C2NC(=O)Nc3c2c(=O)oc2c3ccc3ccccc32)cc1 (configuration not stated) | 82.8 | > 100 | > 100 | > 100 | > 100 | > 100 | > 100 | > 100 | > 100 | > 100 | > 100 |
| COC(=O)C1[C@H](C(=O)OC)C1(Br)CBr (some centres not stated) | > 100 | > 100 | > 100 | > 100 | > 100 | > 100 | > 100 | > 100 | > 100 | > 100 | > 100 |
| Cc1ccc2c(=O)c(C(=O)N(CCO)CCO)c[nH]c2n1 | > 100 | > 100 | > 100 | > 100 | > 100 | > 100 | > 100 | > 100 | > 100 | > 100 | > 100 |
| C=C1C(=O)O[C@H]2C/C(C=O)=C\[C@H]3O[C@H]3/C(COC(=O)C(C)C)=C/CC12 (some centres not stated) |  | 13.4 | 5.42 |  | 10.5 | 20.3 | 28.4 |  | 22.7 | 25.7 | 10.1 |
| C/C(=C\CNc1nc(Cl)nc2nc[nH]c12)CO |  | > 100 | > 100 | > 100 | > 100 | > 100 | > 100 | > 100 | > 100 | > 100 | > 100 |
| c1ccc(CNc2ncnc3n[nH]nc23)cc1 | > 100 | > 100 | > 100 | > 100 | > 100 | > 100 | > 100 | > 100 | > 100 | > 100 | > 100 |
| COC(=O)[C@@H]1O[C@]12[C@@H](CO[Si](C)(C)C(C)(C)C)O[C@@H](n1cc(C)c(=O)[nH]c1=O)[C@@H]2O[Si](C)(C)C(C)(C)C | 30.1 | 27.6 | 34.8 | 35.9 | 30.1 | 40.5 | 75.2 |  | > 100 | > 100 | 29.9 |
| COC1=CC(=O)c2c(cc(COP(=O)(N(C)CCBr)N(C)CCBr)n2C)C1=O | 4.87 | 2.77 | 2.26 | 2.56 | 2.15 | 2.28 | 12.9 | 6.12 | 24.1 | 2.01 | 4.85 |
| C=C(C(=O)OC)[C@H]1CC/C(C)=C/CC/C(C)=C/CC[C@@]2(C)O[C@@H]2C1 | 29.9 | 36.4 | 26 | 46.5 | 38.5 | 68.1 | 62.3 | 62.2 | 37.6 | 59 | 28.7 |
| CN(C)C=Nc1nncc2n[nH]nc12 | > 100 | > 100 | > 100 | > 100 |  | > 100 | > 100 | > 100 | > 100 | > 100 | > 100 |
| CCCCCCCCC[n+]1cccc(C2C(C(=O)OCC)=C(C)NC(C)=C2C(=O)OCC)c1 | 3.29 | 4.39 | 3.54 | 7.32 | 9.8 | 17.8 | 7.73 | 38.6 | 4.21 | 25.8 | 30.5 |
| O=C(NCc1ccccc1)c1c(O)c2ccccc2[nH]c1=O |  | > 100 |  |  | > 100 | > 100 | > 100 | > 100 | > 100 | > 100 | > 100 |
| CCCC(=O)OC1CC(n2cc(F)c(=O)[nH]c2=O)OC1CO (configuration not stated) | > 10 | > 10 | > 10 | > 5.96 | > 10 | 1.11 | > 10 | > 10 | > 10 | > 8.81 | > 10 |
| COc1ccccc1N1C(=O)/C(=C\c2cccc(Oc3ccccc3)c2)S(=O)(=O)C1c1ccccc1 (configuration not stated) | 70.5 | > 100 | > 100 | > 100 | > 100 | > 100 | > 100 | > 100 | > 100 | > 100 | > 100 |
| OC(O)(C(F)(F)F)C(F)(F)F | > 100 | > 100 | > 100 | > 100 | > 100 | > 100 | > 100 | > 100 | > 100 | > 100 | > 100 |
| CC1(C)Oc2ccc3c(=O)c4ccccc4oc3c2C1C(=O)O (configuration not stated) | > 100 | > 100 | > 100 | > 100 | > 100 | > 100 | > 100 | > 100 |  | > 100 | > 100 |
| CCOC(=O)N1C(=S)C(C(=O)OC)(C(=O)OC)N=C1C | > 100 | > 100 | > 100 | > 100 |  | > 100 | > 100 | > 100 | > 100 | > 100 | > 100 |
| COc1cc(S(=O)(=O)N/N=C/c2cc(Br)c(O)c(OC)c2)c(OC)cc1NC(C)=O | > 100 | > 100 |  | > 100 |  | > 100 | > 100 | > 100 | > 100 | > 100 | > 100 |
| COc1ccc(NS(=O)c2cccc(C)c2)cc1 (configuration not stated) |  | > 100 |  | > 100 | > 100 | > 100 | > 100 |  | > 100 | > 100 | > 100 |
| COc1ccc(C(C)NNC(=O)c2ccncc2)cc1F (configuration not stated) | > 100 | > 100 | > 100 | > 100 |  | > 100 | > 100 | > 100 | > 100 | > 100 | > 100 |
| O=C(C=P(c1ccccc1)(c1ccccc1)c1ccccc1)c1ccc(-c2ccc(F)cc2F)cc1 |  | 8.8 | 4.25 | 5.76 |  | 12.2 | 8.57 | 7.41 | 13.8 | 7.2 | 8.81 |

Source: PubChem BioAssay (NCI)
